Data on 1 compound can be found in paper PMC12979188, “Systematic analyses of lipid mobilization by human lipid transfer proteins” (Nature, 2026).

In one assay the target is RBP4 (Homo sapiens, UniProt P02753). In words: affinity purification, SEC and mass spectrometry lipidomics. Conditions: in cellulo, HEK293; retinoid form not specified beyond vitamin A. The class given is cell-based.
For the next assay, the target named is T1, RBP1 (Homo sapiens, UniProt P09455).
T1 sequence (P09455 1-135): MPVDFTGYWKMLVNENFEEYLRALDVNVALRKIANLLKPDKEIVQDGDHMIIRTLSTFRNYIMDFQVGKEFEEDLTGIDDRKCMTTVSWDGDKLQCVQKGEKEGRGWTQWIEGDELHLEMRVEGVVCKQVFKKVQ
The assay is described as above. The assay is classed as cell-based. Conditions: in cellulo, HEK293; retinoid form not specified beyond vitamin A.

Structures are written as SMILES.

As to `CC1=C(/C=C/C(C)=C/C=C/C(C)=C/CO)C(C)(C)CCC1` [vitamin A], the “affinity purification, SEC and mass spectrometry lipidomics” value at RBP4 was “RBP1 and RBP4 formed complexes with vitamin A only in the cellular context”; on RBP1, “RBP1 and RBP4 formed complexes with vitamin A only in the cellular context”.
